Reference: patent publication US20240299352A1, “COMBINATION THERAPIES WITH SETD2 INHIBITORS” (Epizyme, Inc., priority 2021, published 2024)

Key:
MAVER1 = experiment: Co-treatment combination study with Cpd. No. 15, CellTiter-Glo viability, Loewe Volume; type: cell-based; conditions: in combination with Cpd. No. 15, seven days, mantle cell lymphoma cell line MAVER1 (CRL-3008)
Protocol: (§1) Mantle cell lymphoma (MCL) and diffuse large B-cell lymphoma (DLBCL) cell line cultures in log-linear growth rate were treated with combinations of Cpd. No. 15 and combination partners according to a co-treatment model. […] No. 15 and the combination partner. […] Each combination was tested in quadruplicate wells. The final concentration of DMSO (vehicle) in the assay was 0.1% v/v. Fifty microliters of cell line suspension were directly dispensed to the assay-ready plates with an automated multichannel dispenser on to 384-well assay-ready plates. Assay plates were incubated for seven days unless otherwise indicated in a humidified atmosphere of 5% CO2 at 37° C. Quantification of the effect of single agents or combinations on cell viability was performed through measurement of cellular adenosine triphosphate (ATP) using a CellTiter-Glo® (Promega, Madison, WI) Luminescent Cell Viability Assay. Luminescence was detected using a SpectraMax M5 microplate reader (Molecular Devices, Sunnyvale, CA). Concentration response plots were generated in GraphPad Prism version 7.0 for Windows, GraphPad Software, (La Jolla, California) and curves fitted to a four-parameter logistic model with variable slope. Percent of inhibition was calculated at each treatment concentration.

GRANTA519 = experiment: as above; type: cell-based; conditions: in combination with Cpd. No. 15, seven days, mantle cell lymphoma cell line GRANTA519 (ACC 342)
Protocol: as §1

JEKO1 = experiment: as above; type: cell-based; conditions: in combination with Cpd. No. 15, seven days, mantle cell lymphoma cell line JEKO1 (CRL-3006)
Protocol: as §1

Z138 = experiment: as above; type: cell-based; conditions: in combination with Cpd. No. 15, seven days, mantle cell lymphoma cell line Z138 (CRL-3001)
Protocol: as §1

MINO = experiment: as above; type: cell-based; conditions: in combination with Cpd. No. 15, seven days, mantle cell lymphoma cell line MINO (CRL-3000)
Protocol: as §1

JVM2 = experiment: as above; type: cell-based; conditions: in combination with Cpd. No. 15, seven days, mantle cell lymphoma cell line JVM2 (CRL-3002)
Protocol: as §1

REC1 = experiment: as above; type: cell-based; conditions: in combination with Cpd. No. 15, seven days, mantle cell lymphoma cell line REC1 (CRL-3004)
Protocol: as §1

[1] = tested on: diffuse large B-cell lymphoma (DLBCL) cell lines; experiment: Co-treatment combination study with Cpd. No. 15, further cell lines (Table F), CellTiter-Glo viability, Loewe Volume; type: cell-based; conditions: for Combination effect with Cpd. No. 15 (Loewe Volume class), Ri1: co-treatment with Cpd. No. 15, cell line Ri1 (Cat. No. 96090512-1VL); for Combination effect with Cpd. No. 15 (Loewe Volume class), TMD8: co-treatment with Cpd. No. 15, cell line TMD8 (Cat. No. M-097); for Combination effect with Cpd. No. 15 (Loewe Volume class), WILL1: co-treatment with Cpd. No. 15, cell line WILL1 (Cat. No. ACC 651)
Protocol: as §1

WILL2 = experiment: Co-treatment combination study with Cpd. No. 15, CellTiter-Glo viability, Loewe Volume; type: cell-based; conditions: in combination with Cpd. No. 15, seven days, DLBCL cell line WILL2
Protocol: as §1

DOHH2 = experiment: as above; type: cell-based; conditions: in combination with Cpd. No. 15, seven days, DLBCL cell line DOHH2
Protocol: as §1

TOLEDO = experiment: as above; type: cell-based; conditions: in combination with Cpd. No. 15, seven days, DLBCL cell line TOLEDO
Protocol: as §1

SUDHL8 = experiment: as above; type: cell-based; conditions: in combination with Cpd. No. 15, seven days, DLBCL cell line SUDHL8
Protocol: as §1

WSUNHL = experiment: as above; type: cell-based; conditions: in combination with Cpd. No. 15, seven days, DLBCL cell line WSUNHL
Protocol: as §1

Pfeiffer = experiment: as above; type: cell-based; conditions: in combination with Cpd. No. 15, seven days, DLBCL cell line Pfeiffer
Protocol: as §1

KARPAS422 = experiment: as above; type: cell-based; conditions: in combination with Cpd. No. 15, seven days, DLBCL cell line KARPAS422
Protocol: as §1

SUDHL6 = experiment: as above; type: cell-based; conditions: in combination with Cpd. No. 15, seven days, DLBCL cell line SUDHL6
Protocol: as §1

HT = experiment: as above; type: cell-based; conditions: in combination with Cpd. No. 15, seven days, DLBCL cell line HT
Protocol: as §1

DB = experiment: as above; type: cell-based; conditions: in combination with Cpd. No. 15, seven days, DLBCL cell line DB
Protocol: as §1

SUDHL2 = experiment: as above; type: cell-based; conditions: in combination with Cpd. No. 15, seven days, DLBCL cell line SUDHL2
Protocol: as §1

SUDHL10 = experiment: as above; type: cell-based; conditions: in combination with Cpd. No. 15; 5-Day Cotreatment; DLBCL cell line SUDHL10
Protocol: as §1

SUDHL4 = experiment: as above; type: cell-based; conditions: in combination with Cpd. No. 15, seven days, DLBCL cell line SUDHL4
Protocol: as §1

RL = experiment: as above; type: cell-based; conditions: in combination with Cpd. No. 15; 6-Day Cotreatment; DLBCL cell line RL
Protocol: as §1

WSUDLCL2 = experiment: as above; type: cell-based; conditions: in combination with Cpd. No. 15, seven days, DLBCL cell line WSUDLCL2
Protocol: as §1

SUDHL5 = experiment: as above; type: cell-based; conditions: in combination with Cpd. No. 15, seven days, DLBCL cell line SUDHL5
Protocol: as §1

[2] = tested on: diffuse large B-cell lymphoma (DLBCL) cell lines; experiment: Pre-treatment model combination study with Cpd. No. 15 (7 days pre-treatment, then combination; Table G), CellTiter-Glo viability, Loewe Volume; conditions: 7 days pre-treatment with Cpd. No. 15, then combination

CC(=O)c1c(C)c2cnc(Nc3ccc(N4CCNCC4)cn3)nc2n(C2CCCC2)c1=O [Palbociclib, palbociclib]
Combination effect (Loewe Volume) MAVER1 (MAVER1): Synergy (VLoewe>1: synergy)
Combination effect (Loewe Volume) GRANTA519 (GRANTA519): Additivity (between 1 and −1: additivity)
Combination effect (Loewe Volume) JEKO1 (JEKO1): Synergy (VLoewe>1: synergy)
Combination effect (Loewe Volume) Z138 (Z138): Additivity (between 1 and −1: additivity)
Combination effect (Loewe Volume) MINO (MINO): Additivity (between 1 and −1: additivity)
Combination effect (Loewe Volume) JVM2 (JVM2): Additivity (between 1 and −1: additivity)
Combination effect (Loewe Volume) REC1 (REC1): Additivity (between 1 and −1: additivity)

rituximab
Combination effect with Cpd. No. 15 (Loewe Volume class), Ri1 [1]: Additivity (between 1 and −1: additivity)
Combination effect with Cpd. No. 15 (Loewe Volume class), TMD8 [1]: No Effect
Combination effect with Cpd. No. 15 (Loewe Volume class), WILL1 [1]: No Effect
Combination effect (Loewe Volume) WILL2 (WILL2): Additivity (between 1 and −1: additivity)
Combination effect (Loewe Volume) DOHH2 (DOHH2): Synergy (VLoewe>1: synergy)
Combination effect (Loewe Volume) TOLEDO (TOLEDO): Additivity (between 1 and −1: additivity)
Combination effect (Loewe Volume) MAVER1 (MAVER1): Synergy (VLoewe>1: synergy)
Combination effect (Loewe Volume) GRANTA519 (GRANTA519): Additivity (between 1 and −1: additivity)
Combination effect (Loewe Volume) SUDHL8 (SUDHL8): Additivity (between 1 and −1: additivity)
Combination effect (Loewe Volume) JEKO1 (JEKO1): Synergy (VLoewe>1: synergy)
Combination effect (Loewe Volume) Z138 (Z138): No Effect
Combination effect (Loewe Volume) WSUNHL (WSUNHL): Additivity (between 1 and −1: additivity)
Combination effect (Loewe Volume) MINO (MINO): No Effect
Combination effect (Loewe Volume) Pfeiffer (Pfeiffer): No Effect
Combination effect (Loewe Volume) KARPAS422 (KARPAS422): No Effect
Combination effect (Loewe Volume) SUDHL6 (SUDHL6): Synergy (VLoewe>1: synergy)
Combination effect (Loewe Volume) HT (HT): Additivity (between 1 and −1: additivity)
Combination effect (Loewe Volume) DB (DB): No Effect
Combination effect (Loewe Volume) JVM2 (JVM2): Additivity (between 1 and −1: additivity)
Combination effect (Loewe Volume) SUDHL2 (SUDHL2): No Effect
Combination effect (Loewe Volume) REC1 (REC1): Additivity (between 1 and −1: additivity)
Combination effect (Loewe Volume) SUDHL10 (SUDHL10): Additivity (between 1 and −1: additivity)

COc1c(OCCCN2CCOCC2)ccc2c1N=C(NC(=O)c1cnc(N)nc1)N1CCN=C21 [Copanlisib, copanlisib]
Combination effect (Loewe Volume) MAVER1 (MAVER1): Synergy (VLoewe>1: synergy)
Combination effect (Loewe Volume) GRANTA519 (GRANTA519): Additivity (between 1 and −1: additivity)
Combination effect (Loewe Volume) JEKO1 (JEKO1): Additivity (between 1 and −1: additivity)
Combination effect (Loewe Volume) Z138 (Z138): Additivity (between 1 and −1: additivity)
Combination effect (Loewe Volume) MINO (MINO): Additivity (between 1 and −1: additivity)
Combination effect (Loewe Volume) JVM2 (JVM2): Additivity (between 1 and −1: additivity)
Combination effect (Loewe Volume) REC1 (REC1): Additivity (between 1 and −1: additivity)

CNC[C@@H](O)COc1ccc(Cl)c(-c2nc(-c3c(C)noc3C)c(C)c(N3CC4(CCN(C(=O)OC)CC4)C3)n2)c1 [EPZ-2302]
Combination effect with Cpd. No. 15 (Loewe Volume class), Ri1 [1]: Synergy (VLoewe>1: synergy)
Combination effect with Cpd. No. 15 (Loewe Volume class), TMD8 [1]: Synergy (VLoewe>1: synergy)
Combination effect with Cpd. No. 15 (Loewe Volume class), WILL1 [1]: Synergy (VLoewe>1: synergy)
Combination effect (Loewe Volume) WILL2 (WILL2): Synergy (VLoewe>1: synergy)
Combination effect (Loewe Volume) DOHH2 (DOHH2): Synergy (VLoewe>1: synergy)
Combination effect (Loewe Volume) TOLEDO (TOLEDO): Synergy (VLoewe>1: synergy)
Combination effect (Loewe Volume) SUDHL8 (SUDHL8): No Effect
Combination effect (Loewe Volume) SUDHL4 (SUDHL4): Synergy (VLoewe>1: synergy)
Combination effect (Loewe Volume) WSUNHL (WSUNHL): Synergy (VLoewe>1: synergy)
Combination effect (Loewe Volume) Pfeiffer (Pfeiffer): No Effect
Combination effect (Loewe Volume) KARPAS422 (KARPAS422): Synergy (VLoewe>1: synergy)
Combination effect (Loewe Volume) RL (RL): Synergy (VLoewe>1: synergy)
Combination effect (Loewe Volume) SUDHL6 (SUDHL6): Synergy (VLoewe>1: synergy)
Combination effect (Loewe Volume) HT (HT): Synergy (VLoewe>1: synergy)
Combination effect (Loewe Volume) WSUDLCL2 (WSUDLCL2): Synergy (VLoewe>1: synergy)
Combination effect (Loewe Volume) SUDHL5 (SUDHL5): Additivity (between 1 and −1: additivity)
Combination effect (Loewe Volume) DB (DB): No Effect
Combination effect (Loewe Volume) SUDHL2 (SUDHL2): Synergy (VLoewe>1: synergy)
Combination effect (Loewe Volume) SUDHL10 (SUDHL10): No Effect

N.N.O=C([O-])C1(C(=O)[O-])CCC1.[Pt+2] [Carboplatin, carboplatin]
Combination effect with Cpd. No. 15 (Loewe Volume class), Ri1 [1]: Additivity (between 1 and −1: additivity)
Combination effect with Cpd. No. 15 (Loewe Volume class), TMD8 [1]: Additivity (between 1 and −1: additivity)
Combination effect with Cpd. No. 15 (Loewe Volume class), WILL1 [1]: Additivity (between 1 and −1: additivity)
Combination effect (Loewe Volume) WILL2 (WILL2): Additivity (between 1 and −1: additivity)
Combination effect (Loewe Volume) DOHH2 (DOHH2): Additivity (between 1 and −1: additivity)
Combination effect (Loewe Volume) TOLEDO (TOLEDO): Additivity (between 1 and −1: additivity)
Combination effect (Loewe Volume) SUDHL8 (SUDHL8): Synergy (VLoewe>1: synergy)
Combination effect (Loewe Volume) WSUNHL (WSUNHL): Synergy (VLoewe>1: synergy)
Combination effect (Loewe Volume) Pfeiffer (Pfeiffer): Additivity (between 1 and −1: additivity)
Combination effect (Loewe Volume) KARPAS422 (KARPAS422): Additivity (between 1 and −1: additivity)
Combination effect (Loewe Volume) HT (HT): Additivity (between 1 and −1: additivity)
Combination effect (Loewe Volume) SUDHL5 (SUDHL5): Additivity (between 1 and −1: additivity)
Combination effect (Loewe Volume) DB (DB): Additivity (between 1 and −1: additivity)
Combination effect (Loewe Volume) SUDHL2 (SUDHL2): Additivity (between 1 and −1: additivity)
Combination effect (Loewe Volume) SUDHL10 (SUDHL10): Additivity (between 1 and −1: additivity)
Combination effect with Cpd. No. 15 (Loewe Volume class), Farage ([2]; cell line Farage (Cat. No. CRL-2630)): Additivity (between 1 and −1: additivity)
Combination effect with Cpd. No. 15 (Loewe Volume class), HT ([2]; cell line HT (Cat. No. CRL-2631)): Synergy (VLoewe>1: synergy)
Combination effect with Cpd. No. 15 (Loewe Volume class), OCILY7 ([2]; cell line OCILY7 (Cat. No. ACC 688)): Additivity (between 1 and −1: additivity)
Combination effect with Cpd. No. 15 (Loewe Volume class), WILL2 ([2]; cell line WILL2 (Cat. No. ACC 652)): Synergy (VLoewe>1: synergy)
